The results in this text go back to BindingDB's records for doi:10.7270/Q2Q52N1X (Vanderbilt Screening Center for GPCRs, Ion Channels and …, 2009).

SMILES strings stand for the structures.

One test addresses T1, Solute carrier family 12 member 5 (Homo sapiens, UniProt Q9H2X9).
T1 sequence (Q9H2X9 whole entry): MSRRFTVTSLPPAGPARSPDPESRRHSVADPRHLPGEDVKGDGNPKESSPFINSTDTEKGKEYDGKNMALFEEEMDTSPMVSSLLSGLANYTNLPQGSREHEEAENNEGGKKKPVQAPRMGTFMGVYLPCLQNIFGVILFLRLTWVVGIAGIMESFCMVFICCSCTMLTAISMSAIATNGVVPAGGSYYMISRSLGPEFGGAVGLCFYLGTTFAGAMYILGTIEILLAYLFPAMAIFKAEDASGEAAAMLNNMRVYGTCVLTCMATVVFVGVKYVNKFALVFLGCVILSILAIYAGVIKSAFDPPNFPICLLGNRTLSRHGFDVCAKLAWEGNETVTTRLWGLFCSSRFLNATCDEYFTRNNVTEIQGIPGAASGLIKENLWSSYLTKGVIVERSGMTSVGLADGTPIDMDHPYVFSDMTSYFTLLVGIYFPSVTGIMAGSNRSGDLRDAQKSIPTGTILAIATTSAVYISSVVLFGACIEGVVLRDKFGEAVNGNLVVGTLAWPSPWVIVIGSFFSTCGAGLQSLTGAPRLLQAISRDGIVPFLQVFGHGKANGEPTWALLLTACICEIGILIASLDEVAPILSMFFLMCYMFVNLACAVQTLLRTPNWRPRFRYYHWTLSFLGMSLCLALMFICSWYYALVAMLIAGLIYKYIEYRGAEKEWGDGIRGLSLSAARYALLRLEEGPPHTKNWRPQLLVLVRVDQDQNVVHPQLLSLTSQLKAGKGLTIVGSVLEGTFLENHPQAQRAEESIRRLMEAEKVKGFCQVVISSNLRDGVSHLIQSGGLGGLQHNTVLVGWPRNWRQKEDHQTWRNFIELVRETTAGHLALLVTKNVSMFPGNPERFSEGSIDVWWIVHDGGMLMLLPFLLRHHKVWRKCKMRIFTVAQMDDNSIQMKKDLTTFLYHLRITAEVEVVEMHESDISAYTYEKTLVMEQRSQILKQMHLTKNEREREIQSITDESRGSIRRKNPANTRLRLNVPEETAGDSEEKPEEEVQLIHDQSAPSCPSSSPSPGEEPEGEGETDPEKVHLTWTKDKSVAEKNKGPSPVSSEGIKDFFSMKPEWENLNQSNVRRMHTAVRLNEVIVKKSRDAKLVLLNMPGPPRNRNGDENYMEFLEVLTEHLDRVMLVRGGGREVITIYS
Nature of the test: concentration-response of KCC2 transport modulators – cell-based, HEK293 KCC2, FluoZin-2 fluorescence, dose response (AID 1736).
Conditions: not given
Regarding `CNc1ccc(/C=C(\CCC(=O)O)c2nc3ccccc3s2)cc1[N+](=O)[O-]` [MLS000394200], a half-maximal response (EC50) required 7.48 µM.
With `O=[N+]([O-])c1ccc(CSc2nnc(SCc3ccccc3)s2)cc1` [2-(benzylthio)-5-[(4-nitrobenzyl)thio]-1,3,4-thiadiazole], a half-maximal effect (EC50) was put at 11.2 µM.
As to `O=C(Nc1ccc(Cc2ccncc2)cc1)c1cccc([N+](=O)[O-])c1` [3-Nitro-N-(4-pyridin-4-ylmethyl-phenyl)-benzamide], the response was half-maximal at 9.28 µM (EC50).
In the case of `CC1Cc2ccccc2N1C(=O)CN(C)S(=O)(=O)c1cccc2cccnc12` (centres undefined) [MLS000523063], the EC50 stood at 19.5 µM.
Still for that read-out and setting: then `CCOc1[nH]n(-c2ccccc2)c(=O)c1C=Nc1ccc(F)cc1F` [(4E)-4-[[[2,4-bis(fluoranyl)phenyl]amino]methylidene]-5-ethoxy-2-phenyl-pyrazol-3-one], with 0.0323 µM; and `O=C(c1ccccc1SCc1ccc(F)cc1)N1CCOCC1` [MLS000712999], with 9 µM.
Compound `Cc1cc(C(=O)COC(=O)CCc2nc3ccccc3s2)c(C)n1C` [3-(1,3-benzothiazol-2-yl)propanoic acid [2-oxo-2-(1,2,5-trimethyl-3-pyrrolyl)ethyl] ester] registered a 50% effective concentration (EC50) of 16 µM.
On the same count and under the same terms, next, `COc1cc(C(=S)N2CCOCC2)ccc1OC(=O)Cc1ccc(F)cc1` [(2-methoxy-4-morpholin-4-ylcarbothioyl-phenyl) 2-(4-fluorophenyl)ethanoate]: 137 µM; `Cc1ccc(S(=O)(=O)N(CCC(=O)O)Cc2ccc(Cl)cc2)cc1` [3-[(4-chlorobenzyl)-tosyl-amino]propionic acid]: 0.356 µM.
The same measure, in the same setting: then `O=C(NC1CCCC1)C(c1ccncc1)N(Cc1ccco1)C(=O)c1ccc(-c2ccccc2)[nH]1` (centres undefined) [MLS000718066], with 6.36 µM; and `CCOc1cc(S(=O)(=O)NCc2ccccc2)ccc1F` [3-ethoxy-4-fluoranyl-N-(phenylmethyl)benzenesulfonamide], with 4.68 µM.
Take `CSCCC(=O)N1CCCC(CNC(=O)c2ccc(-c3ccccc3)cc2)C1` (centres undefined) [MLS000733867]: the EC50 came to 5.16 µM.
Regarding `Cc1ccc(OCCC(=O)OCC(=O)N2c3ccccc3CC2C)cc1` (centres undefined) [3-(4-methylphenoxy)propanoic acid [2-(2-methyl-2,3-dihydroindol-1-yl)-2-oxoethyl] ester], the midpoint of the response, the EC50, lay at 4.4 µM.
On the same count and under the same terms, then `O=C(CC(Cc1ccccc1)c1ccco1)NC1CCCCC1` (centres undefined) [MLS000556612], with 2.68 µM.
For `Cc1ccc(NC(=O)c2ccccc2NS(=O)(=O)c2ccc(Cl)s2)cc1` [2-[(5-chloranylthiophen-2-yl)sulfonylamino]-N-(4-methylphenyl)benzamide], the EC50 was 1.64 µM.
Still for that read-out and setting: then `O=C(NCc1ccc2c(c1)OCO2)c1ccc(COc2cc(Cl)ccc2Cl)o1` [5-[(2,5-dichlorophenoxy)methyl]-N-piperonyl-2-furamide], with 6.51 µM.
The same measure, in the same setting: then `COc1ccc(S(=O)(=O)N(CCc2ccccc2)CC(=O)O)cc1Cl` [2-[(3-chloranyl-4-methoxy-phenyl)sulfonyl-(2-phenylethyl)amino]ethanoic acid], with 3.8 µM; and `O=C(CCSCCc1ccccn1)Nc1ccc(Cc2ccncc2)cc1` [3-(2-pyridin-2-ylethylsulfanyl)-N-[4-(pyridin-4-ylmethyl)phenyl]propanamide], with 8.25 µM; and `CC(=O)NCCC(=O)N1CCCC(CNC(=O)c2ccc(-c3ccccc3)cc2)C1` (centres undefined) [MLS000733794], with 8.13 µM.
Still for that read-out and setting: then `Sc1nnc(CCc2ccc(Cl)cc2)o1` [5-[2-(4-chlorophenyl)ethyl]-1,3,4-oxadiazole-2-thiol], with 2.47 µM; and `Cc1ccc2oc(-c3ccc(C)c(NC(=S)NC(=O)c4cccs4)c3)nc2c1` [1-[2-Methyl-5-(5-methyl-benzooxazol-2-yl)-phenyl]-3-(thiophene-2-carbonyl)-thiourea], with 0.2 µM.
`COc1ccccc1-n1cnc2cc(NS(=O)(=O)c3ccccc3)ccc21` [MLS000032522] showed an EC50 of 101 µM.
`O=C(Nc1ccc2oc(-c3ccccc3)nc2c1)c1ccncc1` [MLS000109492] yielded an EC50 of 3.24 µM.
The same measure, in the same setting: then `NC(=O)COc1ccccc1/C=C1/SC(=O)N(CC(=O)N2CCc3ccccc3C2)C1=O` [2-[2-({3-[2-(3,4-dihydro-2(1H)-isoquinolinyl)-2-oxoethyl]-2,4-dioxo-1,3-thiazolidin-5-ylidene}methyl)phenoxy]acetamide], with 16.5 µM.
In turn, `O=C1Nc2ccc([N+](=O)[O-])cc2OC1CCN1CCN(Cc2ccccc2)CC1` (centres undefined) [2-[2-(4-benzylpiperazin-1-yl)ethyl]-7-nitro-4H-1,4-benzoxazin-3-one] came in with an EC50 of 15.1 µM.
In turn, `NC1=NC[C@@H](Cc2ccc(O)cc2)N1CCc1cc(C(F)(F)F)cc(C(F)(F)F)c1` displayed an EC50 of 7.94 µM.
Same read-out and setting: then `O=C(NN1C(=O)/C(=C/c2nc3ccccc3[nH]2)SC1=S)c1ccccc1Cl` [N-{5-[1-(1H-Benzoimidazol-2-yl)-meth-(Z)-ylidene]-4-oxo-2-thioxo-thiazolidin-3-yl}-2-chloro-benzamide], with 0.153 µM; and `O=C(NCC1CCCO1)C(c1cccs1)N(C(=O)c1ccc(-c2ccccc2)[nH]1)C1CCCC1` (centres undefined) [5-Phenyl-1H-pyrrole-2-carboxylic acid cyclopentyl-{[(tetrahydro-furan-2-ylmethyl)-carbamoyl]-thiophen-2-yl-methyl}-amide], with 5.57 µM.
On the same count and under the same terms, next, `Cc1onc(-c2ccccc2Cl)c1C(=O)NC(=S)Nc1ccc(C(C)C)cc1` [3-(2-chlorophenyl)-5-methyl-N-(p-cumenylthiocarbamoyl)isoxazole-4-carboxamide]: 0.291 µM; `CN(CC(=O)N1CCN(Cc2ccccc2)CC1)S(=O)(=O)c1cccc2nsnc12` [MLS000674627]: 0.953 µM.
As to `O=C(c1ccc(S(=O)(=O)c2cccc(Cl)c2)c([N+](=O)[O-])c1)N1CCN(c2ccccn2)CC1` [1-{4-[(3-chlorophenyl)sulfonyl]-3-nitrobenzoyl}-4-pyridin-2-ylpiperazine], the midpoint of the response, the EC50, lay at 3.61 µM.
The same measure, in the same setting: then `O=C(CSc1ccc(-c2ccccc2)nn1)c1ccccc1` [1-phenyl-2-(6-phenylpyridazin-3-yl)sulfanyl-ethanone], with 0.862 µM.
The same measure, in the same setting: next, `O=[N+]([O-])c1ccccc1C=C[CH+][N-]n1c(-c2ccc(Cl)cc2)n[nH]c1=S` [MLS000555506]: 14.1 µM; `CC1CCN(C(=O)c2ccc(SCc3ccccc3F)c([N+](=O)[O-])c2)CC1` [1-{4-[(2-fluorobenzyl)thio]-3-nitrobenzoyl}-4-methylpiperidine]: 1.94 µM; `N#Cc1nc(-c2cccs2)oc1N1CCN(Cc2ccccc2)CC1` [5-(4-benzyl-1-piperazinyl)-2-(2-thienyl)-1,3-oxazole-4-carbonitrile]: 11.7 µM.

The test is the same for the next values; noted with them: inactive by the depositor's call.
With `O=C(Cn1c(-c2ccccc2)noc1=O)N1CCC(Cc2ccccc2)CC1` [4-[2-(4-benzylpiperidin-1-yl)-2-oxoethyl]-3-phenyl-1,2,4-oxadiazol-5-one], the EC50 came to 39.6 µM.
On the same count and under the same terms, then `COc1ccc(CN(C(=O)c2ccc(-c3ccccc3)[nH]2)C(C(=O)NC(C)(C)C)c2ccncc2)cc1` (centres undefined) [SMR000279859], with 34.4 µM; and `CCOc1ccc(Nc2nnc(S)s2)cc1` [5-(4-ethoxyanilino)-3H-1,3,4-thiadiazole-2-thione], with 0.0465 µM.
`CN1C(C(=O)NCc2ccccc2)CC2Cn3c(nc4cc(Cl)c(Cl)cc43)C21` (centres undefined) [MLS000877509] returned an EC50 of 64 µM.
